Laboratory results taken from patent US9850256B2, “Antibacterial basic biaromatic derivatives with aminoalkoxy substitution” (priority 2014, dated 2017).
≈ marks a conversion by molar mass, not a printed value.

What was measured:
Assay in all cases: Bacterial growth minimal inhibitory concentration (microdilution, cation-adjusted Mueller-Hinton Broth)
[1] = system: P. aeruginosa ATCC 27853; format: cell-based, Pseudomonas aeruginosa; conditions: Pseudomonas aeruginosa, ATCC27853; quinolone-sensitive strain
Method: (§1) Minimal Inhibitory Concentrations (MICs; mg/L) were determined in cation-adjusted Mueller-Hinton Broth by a microdilution method following the description given in “Methods for Dilution Antimicrobial Susceptibility Tests for Bacteria that Grow Aerobically”, Approved standard, 7th ed., Clinical and Laboratory Standards Institute (CLSI) Document M7-A7, Wayne, Pa., USA (2006).
(§2) All Example compounds were tested against several Gram positive and Gram negative bacteria. […] Staphylococcus aureus A798 is a multiply-resistant strain (methicillin- and quinolone-resistant), Klebsiella pneumoniae T6474 is a multiply-resistant strain (penicillin-, cephalosporin- and in particular quinolone-resistant), while E. coli ATCC25922 and Pseudomonas aeruginosa ATCC 27853 are quinolone-sensitive strains.

[2] = system: S. aureus A798; format: cell-based, Staphylococcus aureus; conditions: Staphylococcus aureus, A798; multiply-resistant strain (methicillin- and quinolone-resistant)
Method: as §1, §2

[3] = system: E. coli ATCC25922; format: cell-based; conditions: Escherichia coli, ATCC25922; quinolone-sensitive strain
Method: as §1, §2

[4] = system: K. pneumoniae T6474; format: cell-based, Klebsiella pneumoniae; conditions: Klebsiella pneumoniae, T6474; multiply-resistant strain (penicillin-, cephalosporin- and quinolone-resistant)
Method: as §1, §2

| MIC [1] [µg/mL] | MIC [2] [µg/mL] | MIC [3] [µg/mL] | MIC [4] [µg/mL] | Compound |
| --- | --- | --- | --- | --- |
| 1 | 0.125 | 0.5 | 1 | C[C@@H]1[C@H](Oc2cccc(-c3cccc(CNCC[C@H]4CN(c5ccc6c(n5)NC(=O)CO6)C(=O)O4)c3)n2)CN1C (mixture of isomers) [Example $178, 6-[(S)-5-(2-{3-[6-((2RS,3RS)-1,2-dimethyl-azetidin-3-yloxy)-pyridin-2-yl]-benzylamino}-ethyl)-2-oxo-oxazolidin-3-yl]-4H-pyrido[3,2-b][1,4]oxazin-3-one] |
| 2 (≈ 3.76 µM) | 4 (≈ 7.52 µM) | 2 (≈ 3.76 µM) | 8 (≈ 15 µM) | O=C1COc2ccc(N3C[C@H](CCNCc4cccc(-c5cc(O[C@@H]6CCNC6)ncn5)c4)OC3=O)nc2N1 [Example $116, 6-[(S)-2-oxo-5-(2-{3-[6-((R)-pyrrolidin-3-yloxy)-pyrimidin-4-yl]-benzylamino}-ethyl)-oxazolidin-3-yl]-4H-pyrido[3,2-b][1,4]oxazin-3-one] |
| 2 (≈ 3.67 µM) | 0.25 (≈ 0.458 µM) | 1 (≈ 1.83 µM) | 1 (≈ 1.83 µM) | CN1CC[C@H](Oc2cccc(-c3cc(CNCC[C@H]4CN(c5ccc6c(n5)NC(=O)CO6)C(=O)O4)ccn3)n2)C1 [Example $139, 6-[(S)-5-(2-{[6′-((S)-1-methyl-pyrrolidin-3-yloxy)-[2,2′]bipyridinyl-4-ylmethyl]-amino}-ethyl)-2-oxo-oxazolidin-3-yl]-4H-pyrido[3,2-b][1,4]oxazin-3-one] |
| 8 (≈ 13.9 µM) | 0.125 (≈ 0.218 µM) | 4 (≈ 6.96 µM) | 8 (≈ 13.9 µM) | O=C1COc2ccc(N3C[C@H](CCNCc4cccc(-c5cccc(OCCN6CCOCC6)n5)c4)OC3=O)nc2N1 [Example 23, 6-[(S)-5-(2-{3-[6-(2-morpholin-4-yl-ethoxy)-pyridin-2-yl]-benzylamino}-ethyl)-2-oxo-oxazolidin-3-yl]-4H-pyrido[3,2-b][1,4]oxazin-3-one] |
| 4 (≈ 7.52 µM) | 16 (≈ 30.1 µM) | 16 (≈ 30.1 µM) | > 16 | O=C1COc2ccc(N3C[C@H](CCNCc4cccc(-c5cc(O[C@H]6CCNC6)cnn5)c4)OC3=O)nc2N1 [Example $181, 6-[(S)-2-oxo-5-(2-{3-[5-((S)-pyrrolidin-3-yloxy)-pyridazin-3-yl]-benzylamino}-ethyl)-oxazolidin-3-yl]-4H-pyrido[3,2-b][1,4]oxazin-3-one] |
| 0.5 (≈ 0.918 µM) | 1 (≈ 1.84 µM) | 1 (≈ 1.84 µM) | 2 (≈ 3.67 µM) | O=C1COc2ccc(N3C[C@H](CCNCc4cccc(-c5cccc(OC[C@@H]6CCCN6)n5)c4)OC3=O)nc2N1 [Example $133, 6-[(S)-2-oxo-5-(2-{3-[6-((S)-1-pyrrolidin-2-ylmethoxy)-pyridin-2-yl]-benzylamino}-ethyl)-oxazolidin-3-yl]-4H-pyrido[3,2-b][1,4]oxazin-3-one] |
| 0.5 (≈ 0.942 µM) | 0.5 (≈ 0.942 µM) | 1 (≈ 1.88 µM) | 1 (≈ 1.88 µM) | O=C1COc2ccc(N3C[C@H](CCNCc4cccc(-c5cccc(O[C@H]6CCNC6)n5)c4)OC3=O)nc2N1 [Example $119, 6-[(S)-2-oxo-5-(2-{3-[6-((S)-pyrrolidin-3-yloxy)-pyridin-2-yl]-benzylamino}-ethyl)-oxazolidin-3-yl]-4H-pyrido[3,2-b][1,4]oxazin-3-one] |
| 2 (≈ 3.76 µM) | 0.5 (≈ 0.939 µM) | 1 (≈ 1.88 µM) | 1 (≈ 1.88 µM) | CN1CC(Oc2cncc(-c3cccc(CNCC[C@H]4CN(c5ccc6c(n5)NC(=O)CO6)C(=O)O4)n3)n2)C1 [Example $179, 6-{(S)-5-[2-({6-[6-(1-methyl-azetidin-3-yloxy)-pyrazin-2-yl]-pyridin-2-ylmethyl}-amino)-ethyl]-2-oxo-oxazolidin-3-yl}-4H-pyrido[3,2-b][1,4]oxazin-3-one] |
| 1 (≈ 1.84 µM) | 0.5 (≈ 0.918 µM) | 1 (≈ 1.84 µM) | 2 (≈ 3.67 µM) | C[C@@H]1CNC[C@H]1Oc1cccc(-c2cccc(CNCC[C@H]3CN(c4ccc5c(n4)NC(=O)CO5)C(=O)O3)c2)n1 (relative stereo) [Example $173, 6-[(S)-5-(2-{3-[6-((3S*,4R*)-4-methyl-pyrrolidin-3-yloxy)-pyridin-2-yl]-benzylamino}-ethyl)-2-oxo-oxazolidin-3-yl]-4H-pyrido[3,2-b][1,4]oxazin-3-one] |
| 2 (≈ 3.95 µM) | 8 (≈ 15.8 µM) | 4 (≈ 7.9 µM) | 4 (≈ 7.9 µM) | NCCOc1cccc(-c2ccnc(CNCC[C@H]3CN(c4ccc5c(n4)NC(=O)CO5)C(=O)O3)n2)n1 [Example $165, 6-{(S)-5-[2-({4-[6-(2-amino-ethoxy)-pyridin-2-yl]-pyrimidin-2-ylmethyl}-amino)-ethyl]-2-oxo-oxazolidin-3-yl}-4H-pyrido[3,2-b][1,4]oxazin-3-one] |
| 1 (≈ 1.87 µM) | 0.5 (≈ 0.937 µM) | 1 (≈ 1.87 µM) | 2 (≈ 3.75 µM) | COc1cc(OCCN)cc(-c2cccc(CNCC[C@H]3CN(c4ccc5c(n4)NC(=O)CO5)C(=O)O3)c2)c1 [Example 21, 6-[(S)-5-(2-{[3′-(2-amino-ethoxy)-5′-methoxy-biphenyl-3-ylmethyl]-amino}-ethyl)-2-oxo-oxazolidin-3-yl]-4H-pyrido[3,2-b][1,4]oxazin-3-one] |
| 4 (≈ 7.52 µM) | 1 (≈ 1.88 µM) | 1 (≈ 1.88 µM) | 2 (≈ 3.76 µM) | CN1CC(Oc2cccc(-c3cccc(CNCC[C@H]4CN(c5ccc6c(n5)NC(=O)CO6)C(=O)O4)n3)n2)C1 [Example $188, 6-[(S)-5-(2-{[6′-(1-methyl-azetidin-3-yloxy)-[2,2′]bipyridinyl-6-ylmethyl]-amino}-ethyl)-2-oxo-oxazolidin-3-yl]-4H-pyrido[3,2-b][1,4]oxazin-3-one] |
| 2 | 0.5 | 2 | 2 | CN1CCC[C@H](Oc2cccc(-c3cccc(CNCCC4CN(c5ccc6c(n5)NC(=O)CO6)C(=O)O4)c3)n2)C1 (mixture of isomers) [Example $142, 6-[(RS)-5-(2-{3-[6-((S)-1-methyl-piperidin-3-yloxy)-pyridin-2-yl]-benzylamino}-ethyl)-2-oxo-oxazolidin-3-yl]-4H-pyrido[3,2-b][1,4]oxazin-3-one] |
| 4 (≈ 7.36 µM) | 2 (≈ 3.68 µM) | 4 (≈ 7.36 µM) | 4 (≈ 7.36 µM) | N[C@@H]1CC[C@H](Oc2cccc(-c3cccc(CNCC[C@H]4CN(c5ccc6c(n5)NC(=O)CO6)C(=O)O4)c3)c2)C1 [$183, 6-[(S)-5-(2-{[3′-((1S,3R)-3-amino-cyclopentyloxy)-biphenyl-3-ylmethyl]-amino}-ethyl)-2-oxo-oxazolidin-3-yl]-4H-pyrido[3,2-b][1,4]oxazin-3-one] |
| 2 (≈ 3.76 µM) | 2 (≈ 3.76 µM) | 1 (≈ 1.88 µM) | 2 (≈ 3.76 µM) | CN1CC(Oc2cnnc(-c3cccc(CNCC[C@H]4CN(c5ccc6c(n5)NC(=O)CO6)C(=O)O4)c3)c2)C1 [Example $174, 6-[(S)-5-(2-{3-[5-(1-methyl-azetidin-3-yloxy)-pyridazin-3-yl]-benzylamino}-ethyl)-2-oxo-oxazolidin-3-yl]-4H-pyrido[3,2-b][1,4]oxazin-3-one] |
| 2 (≈ 3.67 µM) | 0.5 (≈ 0.918 µM) | 2 (≈ 3.67 µM) | 2 (≈ 3.67 µM) | CN1CC(COc2cccc(-c3cccc(CNCC[C@H]4CN(c5ccc6c(n5)NC(=O)CO6)C(=O)O4)c3)n2)C1 [Example $113, 6-[(S)-5-(2-{3-[6-(1-methyl-azetidin-3-ylmethoxy)-pyridin-2-yl]-benzylamino}-ethyl)-2-oxo-oxazolidin-3-yl]-4H-pyrido[3,2-b][1,4]oxazin-3-one] |
| 2 (≈ 3.58 µM) | 0.25 (≈ 0.448 µM) | 2 (≈ 3.58 µM) | 2 (≈ 3.58 µM) | C[C@H]1[C@@H](Oc2cccc(-c3cccc(CNCC[C@H]4CN(c5ccc6c(n5)NC(=O)CO6)C(=O)O4)c3)n2)CCN1C (relative stereo) [Example $176, 6-[(S)-5-(2-{3-[6-((2S*,3S*)-1,2-dimethyl-pyrrolidin-3-yloxy)-pyridin-2-yl]-benzylamino}-ethyl)-2-oxo-oxazolidin-3-yl]-4H-pyrido[3,2-b][1,4]oxazin-3-one] |
| 0.5 (≈ 0.991 µM) | 4 (≈ 7.93 µM) | 1 (≈ 1.98 µM) | 4 (≈ 7.93 µM) | NCCOc1ccnc(-c2cccc(CNCC[C@H]3CN(c4ccc5c(n4)NC(=O)CO5)C(=O)O3)c2)c1 [Example $154, 6-[(S)-5-(2-{3-[4-(2-amino-ethoxy)-pyridin-2-yl]-benzylamino}-ethyl)-2-oxo-oxazolidin-3-yl]-4H-pyrido[3,2-b][1,4]oxazin-3-one] |
| 4 (≈ 7.32 µM) | 4 (≈ 7.32 µM) | 2 (≈ 3.66 µM) | 4 (≈ 7.32 µM) | CN1CC[C@H](Oc2cncc(-c3cncc(CNCC[C@H]4CN(c5ccc6c(n5)NC(=O)CO6)C(=O)O4)c3)n2)C1 [Example $146, 6-{(S)-5-[2-({5-[6-((S)-1-methyl-pyrrolidin-3-yloxy)-pyrazin-2-yl]-pyridin-3-ylmethyl}-amino)-ethyl]-2-oxo-oxazolidin-3-yl}-4H-pyrido[3,2-b][1,4]oxazin-3-one] |
| 4 (≈ 7.32 µM) | 1 (≈ 1.83 µM) | 1 (≈ 1.83 µM) | 1 (≈ 1.83 µM) | CN1CC[C@H](Oc2cncc(-c3cc(CNCC[C@H]4CN(c5ccc6c(n5)NC(=O)CO6)C(=O)O4)ccn3)n2)C1 [Example $147, 6-{(S)-5-[2-({2-[6-((S)-1-methyl-pyrrolidin-3-yloxy)-pyrazin-2-yl]-pyridin-4-ylmethyl}-amino)-ethyl]-2-oxo-oxazolidin-3-yl}-4H-pyrido[3,2-b][1,4]oxazin-3-one] |
